We go through three compounds from US20220280511A1, “CDK4/6 INHIBITORS FOR THE TREATMENT OF PSORIASIS” (EBERHARD KARLS UNIVERSITAET TUEBINGEN MEDIZINISCHE FAKULTAET, priority 2019, published 2022).

Data set [1] relates to TH1 cytokines and tumor-infiltrating T cells. The settings on record: experimental cancer model, Deng et al.; cited from earlier work.
Data set [2] has as its system IL-36-triggered psoriasis-like dermatitis. Kind of data set: IL-36α-mediated psoriasis-like dermatitis mouse model, topical treatment of ears. The class given is in vivo, C57BL/6 mice. The protocol:
Western blot analysis was performed as described before. The following antibodies were used and purchased from Cell Signaling: anti-IκBζ (9244), anti-phospho-STAT3 at […] (9145), anti-phospho-STAT3 at […] (9134), anti-STAT3 (12640), anti-p65 (8242), anti-EZH2 (5246), anti-pRB (phospho-RB at […]/811; 8516), anti-FoxM1 (5436), anti-H3 (4499), anti-CDK4 (12790), anti-CDK6 (13331), anti-CDK9 (2316), anti-cyclin D1 (2978), anti-cyclin D2 (3741), anti-cyclin D3 (2936), anti-cJUN (9165), anti-H3K27me3 (9733), anti-GAPDH (2118), anti-H3 (9715) and anti-β-actin (3700). Anti-β-Gal (sc377257) and anti-GFP (sc9996) were obtained from Santa Cruz Biotechnology. Anti-pEZH2 at […] (61242) anti-pEZH2 at […] (12820) were purchased from Active Motif and anti-pan-methyl-lysine antibody was purchased from Enzo ([…]). For detection of mouse IκB, a self-made antibody raised against peptides […] NO:3) and […] NO:4) was applied. Gene expression analyses were performed as described. Relative gene expression was analyzed using self-designed primers ordered at Metabion (not shown). Relative mRNA levels were calculated by normalization to the human reference gene RPL37A or the mouse reference gene Actin using the 2-ΔΔCt method. Experiments were conducted in accordance with the German law guide-lines of animal care. Ears of female C57BL/6 mice (8-12 weeks old) were topically treated for 6 consecutive days with 5 mg Aldara cream (containing 5% imiquimod, 3M Pharmaceutical) and 0.02 mg of abemaciclib (in 10 μL ethanol), 0.05 mg CPI-169 (in 10 μL ethanol) or vehicle control. At day 7, mice were sacrificed and analysed. For IL-36α-mediated psoriasis induction, ears of male C57BL/6 mice (8-12 weeks old) were treated by intradermal injections using 1 μg murine IL-36α (aa 8-160, R&D) or PBS control for 5 consecutive days. For application of the vehicle control, abemaciclib (0.02 mg) or CPI-169 (0.05 mg), substances were mixed with Miglyol 812 (Carl Roth) in a ratio of 1:4. Inhibitors were topically applicated 6 h before intradermal injections of IL-36α or PBS were applied. Mice were sacrificed and analysed at day 6. […]

Data set [3] deals with IMQ-induced, psoriasis-like skin inflammation. The class given is in vivo, C57BL/6 mice. The settings on record: for penetration of the skin: mouse, in vivo. The protocol:
Western blot analysis was performed as described before. The following antibodies were used and purchased from Cell Signaling: anti-IκBζ (9244), anti-phospho-STAT3 at Tyr705 (9145), anti-phospho-STAT3 at Ser727 (9134), anti-STAT3 (12640), anti-p65 (8242), anti-EZH2 (5246), anti-pRB (phospho-RB at Ser807/811; 8516), anti-FoxM1 (5436), anti-H3 (4499), anti-CDK4 (12790), anti-CDK6 (13331), anti-CDK9 (2316), anti-cyclin D1 (2978), anti-cyclin D2 (3741), anti-cyclin D3 (2936), anti-cJUN (9165), anti-H3K27me3 (9733), anti-GAPDH (2118), anti-H3 (9715) and anti-β-actin (3700). Anti-β-Gal (sc377257) and anti-GFP (sc9996) were obtained from Santa Cruz Biotechnology. Anti-pEZH2 at T345 (61242) anti-pEZH2 at T487 (12820) were purchased from Active Motif and anti-pan-methyl-lysine antibody was purchased from Enzo (ADI-KAP-TF121-E). For detection of mouse IκB, a self-made antibody raised against peptides […] (SEQ ID NO:3) and […] (SEQ ID NO:4) was applied.
Gene expression analyses were performed as described. Relative gene expression was analyzed using self-designed primers ordered at Metabion (not shown). Relative mRNA levels were calculated by normalization to the human reference gene RPL37A or the mouse reference gene Actin using the 2-ΔΔCt method.
Experiments were conducted in accordance with the German law guide-lines of animal care. Ears of female C57BL/6 mice (8-12 weeks old) were topically treated for 6 consecutive days with 5 mg Aldara cream (containing 5% imiquimod, 3M Pharmaceutical) and 0.02 mg of abemaciclib (in 10 μL ethanol), 0.05 mg CPI-169 (in 10 μL ethanol) or vehicle control. At day 7, mice were sacrificed and analysed. For IL-36α-mediated psoriasis induction, ears of male C57BL/6 mice (8-12 weeks old) were treated by intradermal injections using 1 μg murine IL-36α (aa 8-160, R&D) or PBS control for 5 consecutive days. For application of the vehicle control, abemaciclib (0.02 mg) or CPI-169 (0.05 mg), substances were mixed with Miglyol 812 (Carl Roth) in a ratio of 1:4. Inhibitors were topically applicated 6 h before intradermal injections of IL-36α or PBS were applied. Mice were sacrificed and analysed at day 6.
Sample preparation was performed as described. The following anti-mouse antibodies from BioLegend were used: anti-CD45 FITC (103107), anti-CD11b PacificBlue (101223), anti-Ly6G PE (127607), anti-F4/80 APC (123115), anti-CD11c Pacific Blue (117322), anti-MHC-II APC (107613), anti-CD172a PE (144011) and anti-Silec-H PE (129605). Anti-PDCA-1 APC (17-2092-80) and anti-αβTCR PE (HM3628) were purchased from Invitrogen, and anti-γδ-TCR APC (17-5711-82) from Sigma. Data was acquired on a LSRII flow cytometer (Becton Dickson).
Ear sections from mice were fixed in 10% formalin (Carl Roth) and subsequently embedded in paraffin. 5-μm sections were prepared and incubated with the following antibodies from Cell Signaling: pSTAT3 (9145), pRB (8516) and H3K27me3 (9733). For staining of human skin samples, EZH2 antibody (Cell Signaling, 5246) was used. Antigen retrieval was performed in 1 mM EDTA pH 8.0 for pSTAT3, and 10 mM citrate buffer pH 6.0+0.5% Triton X-100 for EZH2, H3K27me3 and pRB. After incubation with peroxidase-coupled secondary antibodies, sections were stained with DAB substrate.

[4] abbreviates: flow cytometry of IMQ-treated mouse ears, day 7.

With `CN1CCN(c2ccc(Nc3ncc4cc5n(c4n3)C3(CCCCC3)CNC5=O)nc2)CC1` [trilaciclib], in data set [1], the “levels of TH1 cytokines and tumor-infiltrating T cells” value was “increased”.
In the case of `CCS(=O)(=O)N1CCC([C@@H](C)n2c(C)c(C(=O)NCc3c(OC)cc(C)[nH]c3=O)c3ccccc32)CC1` [CPI-169], in data set [2] (IL-36α-treated skin, FIG. 12g), the “IκBζ target gene expression and key cytokine expression (Il17a, Il23a)” value is recorded as “effectively blocked”. Besides, the “keratinocyte hyperproliferation and immune cell infiltration” value in data set [2] (intradermal IL-36α 5 days, topical inhibitor, day 6) is “effectively blocked”. Moreover, the “IL-36-mediated expression of IκBζ, phosphorylation of EZH2 at T345 and activation of STAT3 (pSTAT3 Y705)” value in data set [2] (skin of treated mouse ears, day 6) is given as “suppressed”. For the same compound, in data set [3] (IMQ-treated mouse skin, day 7), the “IκBζ expression in the skin, phosphorylation of EZH2 at T345 and of STAT3 at Y705” value was “completely abrogated”. The “expression of IκBζ target genes (Cxcl2, Cxcl5) and DC- and T-cell-derived cytokines (Il17a, Il23a)” value in data set [3] (IMQ-treated skin, day 7) is given as “significantly downregulated”. Besides, in data set [3] (ear skin sections of treated mice, FIG. 10c), the “H3K27me3 expression in the epidermis (EZH2 inhibition)” value is listed as “loss”. For the same compound, in data set [3] (setting [4]), the “immune cell infiltration (neutrophils, macrophages and T cells)” value is listed as “fully abrogated”; the “number of infiltrating plasmacytoid (pDC) and myeloid dendritic cells (mDC)” value was “significantly suppressed”. In addition, in data set [3], the “penetration of the skin” value is “effectively penetrated the skin”. For the same compound, in data set [3] (topical, daily 6 days, abemaciclib 0.02 mg, CPI-169 0.05 mg per ear), the “IMQ-induced, psoriasis-like skin inflammation (ear thickening, keratinocyte hyperproliferation, immune cell infiltration)” value is reported as “completely suppressed”.
On to `CCN1CCN(Cc2ccc(Nc3ncc(F)c(-c4cc(F)c5nc(C)n(C(C)C)c5c4)n3)nc2)CC1` [abemaciclib], for which the “penetration of the skin” value in data set [3] is recorded as “effectively penetrated the skin”.
